According to PMC12198282, “Application of a high-density microelectrode array assay using a 3D human iPSC-derived brain microphysiological system model for in vitro neurotoxicity screening of environmental compounds” (Archives of Toxicology, 2025):
Entries after “also recorded” stand apart in the source; their conditions may differ. Read-outs that look alike come from different tables or passages of the source.

Tests used:
[1] = system: human iPSC-derived 3D BrainSpheres; assay: BrainSphere MEA assay (HD-MEA, 13-day exposure, concentration-response); type: cell-based; conditions: for EC (benchmark response 1.349 SD): 312 h; for AC50: concentration at 50% maximal activity, Supplement 3 prints it also for curves with hit call 0; on hitc Mean.Spheroid.Burst.ISI: key: 1 (active); 0 (inactive); on hitc Mean.Spheroid.Burst.Peak.Firing.Rate: key: 1 (active); 0 (inactive); on hitc Mean.Spheroid.Firing.Rate: key: 1 (active); 0 (inactive); on hitc Mean.Spheroid.IBI: key: 1 (active); 0 (inactive); on hitc Mean.Spheroid.Nonburst.ISI: key: 1 (active); 0 (inactive); on hitc Mean.Spheroid.Spikes.per.Burst.per.Electrode: key: 1 (active); 0 (inactive); on hitc Mean.Spheroid.Spikes.per.Burst: key: 1 (active); 0 (inactive); on hitc Spheroid.Burst.Frequency: key: 1 (active); 0 (inactive); on hitc Spheroid.Spike.Amplitude.90th.Percentile: key: 1 (active); 0 (inactive)
Method in brief: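 Recordings used a 5× RMS spike threshold and 600 s network scans of fixed electrode regions, each region clustered as one BrainSphere. Spheres had 7 weeks of differentiation and 48 h attachment on coated HD-MEA chips before day 0 of the 13-day concentration-response exposure. At least three independent plates were run.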

[2] = system: 2D rat cortical cultures; conditions: cited from earlier work
[3] = AUC over 13-day exposure, tcplfit2
[4] = Homo sapiens, tcplfit2 BMD at benchmark response (1.349*SD of baseline controls), read-out: BMD Mean.Spheroid.Burst.ISI
[5] = Homo sapiens, tcplfit2 BMD at benchmark response (1.349*SD of baseline controls), read-out: BMD Mean.Spheroid.Nonburst.ISI
[6] = Homo sapiens, read-out: ac50 Mean.Spheroid.Burst.Duration
[7] = Homo sapiens, read-out: ac50 Mean.Spheroid.Burst.ISI
[8] = Homo sapiens, read-out: ac50 Spheroid.Burst.Frequency
[9] = tcplfit2 BMD at benchmark response (1.349*SD of baseline controls)
[10] = tcplfit2 output ACC, activity cutoff in Supplemental Table 1

SMILES: ClC1=C(Cl)[C@]2(Cl)[C@@H]3[C@@H]4C[C@@H]([C@H]5O[C@@H]45)[C@@H]3[C@@]1(Cl)C2(Cl)Cl [Dieldrin]
- Difference of minimum potency between BrainSphere MEA assay and rNFA ([1]; 5th percentile of AC50 values by chemical, above 0.5 = more potent in the rNFA): more than 0.5 log10 µM
- hitc Mean.Spheroid.Burst.ISI [1, 3]: 1
- hitc Mean.Spheroid.Burst.Peak.Firing.Rate [1, 3]: 1
- hitc Mean.Spheroid.Firing.Rate [1, 3]: 1
- hitc Mean.Spheroid.IBI [1, 3]: 1
- hitc Mean.Spheroid.Nonburst.ISI [1, 3]: 0
- hitc Mean.Spheroid.Spikes.per.Burst [1, 3]: 1
- hitc Mean.Spheroid.Spikes.per.Burst.per.Electrode [1, 3]: 1
- hitc Spheroid.Burst.Frequency [1, 3]: 1
- hitc Spheroid.Spike.Amplitude.90th.Percentile [1, 3]: 1
- EC50 ([1]; Homo sapiens, 5th percentile across active AC50 values per chemical, read-out: Minimum potency): 9.51 µM
- EC (benchmark response 1.349 SD) [1, 4]: 9.9 µM
- EC (benchmark response 1.349 SD) [1, 5]: 45 µM
- AC50 [1, 6]: 13 µM
- AC50 [1, 7]: 12 µM
- AC50 ([1]; Homo sapiens, read-out: ac50 Mean.Spheroid.Burst.Peak.Firing.Rate): 11.7 µM
- AC50 ([1]; Homo sapiens, read-out: ac50 Mean.Spheroid.Firing.Rate): 9.5 µM
- AC50 ([1]; Homo sapiens, read-out: ac50 Mean.Spheroid.IBI): 28 µM
- AC50 ([1]; Homo sapiens, read-out: ac50 Mean.Spheroid.Nonburst.ISI): 45 µM
- AC50 ([1]; Homo sapiens, read-out: ac50 Mean.Spheroid.Spikes.per.Burst): 12.3 µM
- AC50 ([1]; Homo sapiens, read-out: ac50 Mean.Spheroid.Spikes.per.Burst.per.Electrode): 11 µM
- AC50 [1, 8]: 9.6 µM
- AC50 ([1]; Homo sapiens, read-out: ac50 Spheroid.Spike.Amplitude.90th.Percentile): 21 µM
- EC50 ([1]; Homo sapiens, mean across active AC50 values per chemical, read-out: Mean potency): 14.3 µM
- AC50 ([1]; read-out: ac50 Mean.Spheroid.Burst.Duration): 12.9 µM
- AC50 ([1]; read-out: ac50 Mean.Spheroid.Burst.ISI): 12.2 µM
- AC50 ([1]; read-out: ac50 Mean.Spheroid.Firing.Rate): 9.45 µM
- AC50 ([1]; read-out: ac50 Mean.Spheroid.IBI): 28.2 µM
- AC50 ([1]; read-out: ac50 Mean.Spheroid.Spikes.per.Burst.per.Electrode): 11.2 µM
- AC50 ([1]; read-out: ac50 Spheroid.Burst.Frequency): 9.6 µM
- AC50 ([1]; read-out: ac50 Spheroid.Spike.Amplitude.90th.Percentile): 20.8 µM
- Percent active ([1]; metrics active out of the total number of metrics screened): 90%
- BMD Mean.Spheroid.Burst.Peak.Firing.Rate [1, 9]: 9.9 µM
- BMD Mean.Spheroid.Firing.Rate [1, 9]: 9.3 µM
- BMD Mean.Spheroid.IBI [1, 9]: 27 µM
- BMD Mean.Spheroid.Spikes.per.Burst [1, 9]: 11 µM
- BMD Mean.Spheroid.Spikes.per.Burst.per.Electrode [1, 9]: 9.9 µM
- BMD Spheroid.Burst.Frequency [1, 9]: 9.8 µM
- BMD Spheroid.Spike.Amplitude.90th.Percentile [1, 9]: 17 µM
- ACC Mean.Spheroid.Burst.ISI [1, 10]: 8.4 µM
- ACC Mean.Spheroid.Burst.Peak.Firing.Rate [1, 10]: 9.6 µM
- ACC Mean.Spheroid.Firing.Rate [1, 10]: 11 µM
- ACC Mean.Spheroid.IBI [1, 10]: 28 µM
- ACC Mean.Spheroid.Nonburst.ISI [1, 10]: 52 µM
- ACC Mean.Spheroid.Spikes.per.Burst [1, 10]: 13 µM
- ACC Mean.Spheroid.Spikes.per.Burst.per.Electrode [1, 10]: 10 µM
- ACC Spheroid.Burst.Frequency [1, 10]: 9.2 µM
- ACC Spheroid.Spike.Amplitude.90th.Percentile [1, 10]: 20 µM
- Hits ([1]; total number of active endpoints out of 10 MEA activity metrics, 13-day exposure): 9
- hitc CCTE_Shafer_MEA_dev_LDH [2]: 1
- AC50 ([2]; read-out: ac50 CCTE_Shafer_MEA_dev_LDH, rNFA mc5, cytotoxicity LDH): 11.3 µM

SMILES: CCCC(CCC)C(=O)O [Sodium valproate]
- Bioactivity across the 10 MEA endpoints of the BrainSphere MEA assay (in words) [1]: inactive across all metrics; also recorded: inactive in the BrainSphere MEA
- EC (benchmark response 1.349 SD) [1, 4]: 85 µM
- EC (benchmark response 1.349 SD) [1, 5]: 213 µM
- AC50 [1, 6]: 45 µM
- AC50 [1, 7]: 85 µM
- AC50 [1, 8]: 84 µM
- hitc CCTE_Shafer_MEA_dev_LDH ([2]; rNFA mc5 hit call, cytotoxicity LDH): 0
